{"source": "patent US20150203526A1", "about": "“NOVEL 19-NOR-STEROIDS AND THEIR USE FOR TREATING PROGESTERONE- DEPENDENT CONDITIONS” (REPROS THERAPEUTICS INC., priority 2010, published 2015)", "key": {"[1]": {"assay": "Thermodynamic solubility (solid shaken in solvent at 37° C., filtrate by LC/UV)", "type": "physicochemical", "experimental": "Briefly, 300 ul of solvent (ethanol, 0.1 M HCl or distilled H2O) were added to 14-16 mg of the solid compound (5 parallel measurements per sample, per solvent, mean concentrations 93-107 mM). The mixtures were shaken at 37° C. for 24 and 72 hours. Concentrations of the filtrates were determined by liquid chromatography with UV detector (LC/UV) with 3-point calibration.\nCrystal form was checked by X-ray powder diffraction (XRPD) after recovering the slurry at 24 and 72 hours. […] The exact cause of this observed phenomenon is not known."}, "liver aminotransferases": {"tested_on": "liver aminotransferases", "assay": "Clinical trials of daily oral CDB-4124 (Proellex): liver toxicity / liver enzymes", "type": "in vivo, human", "experimental": "(§1) The maximum concentrations of CDB-4124 and its mono-demethylated metabolite (CDB-4453) for the 12.5 mg dose were 25% of the 50 mg dose. All liver toxicities resolved in those women that returned for safety follow-ups, including those subjects that developed liver-associated serious adverse effects (SAEs).\nTo date, over 600 patients, including women with confirmed cases of endometriosis or uterine fibroids, have participated in double blind and open label clinical trials in which patients were administered daily oral capsules containing doses of 12.5 mg, 25 mg or 50 mg CDB-4124 (Proellex) for over one month. Of these patients, about 500 received Proellex and about 130 received a placebo. Of the patients receiving Proellex, about 190 received a dose of 50 mg CDB-4124 per day, about 260 received a dose of 25 mg CDB-4124 per day and about 55 received a dose of 12.5 mg per day.\nLiver enzymes were frequently monitored in participating subjects. The liver enzyme level at which the clinical trials would be discontinued was set at an increase in liver aminotransferases greater than, or equal to three times the Upper Limit of Normal (≧3×ULN).\nOf the nine subjects with a confirmed increase in liver enzymes≧3×ULN, seven were severe enough elevations to be reported to the FDA as SAEs. One of these seven subjects had been receiving a dose of 25 mg CDB-4124 per day; the remaining six subjects had been receiving a dose of 50 mg CDB-4124 per day. Liver enzymes≧3×ULN persisted in five of the nine subjects with a confirmed increase in liver enzymes≧3×ULN. These five subjects had previously been dosed with the 50 mg dose. One of these subjects is receiving oral medication for treatment of their liver condition. Clinical trials involving CDB-4124 at all doses were voluntarily suspended as a result of these SAEs and were subsequently placed on clinical hold by the United States Food and Drug Administration for safety reasons."}, "[2]": {"assay": "Pharmacokinetic studies on clinical trial subjects after oral CDB-4124", "type": "in vivo, human", "experimental": "as §1\n(§2) Pharmacokinetic studies performed on participating subjects detected a high Cmax and a Tmax at 1-2 hours following administration. […] Metabolism of CDB-4124 by the liver provides the opportunity for liver damage and greatly reduces the concentration of the antiprogestin before it reaches the systemic circulation. Thus, alternative routes of administration of antiprogestins that avoid first pass metabolism such as, without limitation, intravenous, intramuscular, and sublingual, should allow antiprogestins to be absorbed directly into the systemic circulation and thereby provide a method for treating progestone-dependent conditions while avoiding liver toxicity. Administration routes which avoid first pass metabolism may also require less drug per dose to achieve the same therapeutic benefit relative to oral administration."}, "human hepatocytes": {"tested_on": "human hepatocytes", "assay": "Metabolism in primary cultures of human hepatocytes", "type": "in vitro ADME", "experimental": "as §2"}, "animal hepatocytes": {"tested_on": "animal hepatocytes", "assay": "Metabolism in primary cultures of animal hepatocytes", "type": "in vitro ADME", "experimental": "as §2"}, "[3]": {"tested_on": "DMBA-induced breast tumors", "assay": "DMBA-induced breast tumor pre-clinical study", "type": "in vivo, rodents", "conditions": "subcutaneous injection", "experimental": "Pre-clinical studies were performed on rodents with breast tumors induced by 7,12-Dimethylbenz(a)anthracene (DMBA)."}, "[4]": {"assay": "Oral vs vaginal pharmacokinetics in beagles (25 mg)", "type": "in vivo", "experimental": "FIG. 1 illustrates a comparison of the Cmax (peak serum concentration) and area under the curve (AUC) following oral and vaginal administration of CDB-4124 or CDB-4453 at a 25 mg dose in beagles.\nBeagles were administered 25 mg of CDB-4124 or CDB-4453 (the monodemethylated metabolite of CDB-4124) formulated as either a micronized powder or a vaginal suppository. […] Moreover, systemic exposure of the drug is much lower when administered locally (compare AUC for CDB-4124 and CDB-4453 when administered vaginally vs. orally)."}, "[5]": {"tested_on": "progesterone-induced endometrial proliferation", "assay": "Anti-Clauberg study, vaginal vs oral (McPhail index)", "type": "in vivo, rabbits", "experimental": "FIG. 4 compares the antiprogestational effects of three doses of CDB-4124 when delivered orally versus when delivered to the vaginal mucosa of estradiol-primed immature rabbits in the presence of progesterone, as measured by a decrease in the McPhail index. Treatment with progesterone alone (vehicle control) provided a baseline measurement of progestational activity.\nAnother anti-Clauberg study was run in which immature estradiol-primed rabbits were administered progesterone alone (vehicle control) or were co-administered progesterone and three doses of CDB-4124 by either vaginal or oral administration. The inhibition of progesterone-induced endometrial proliferation at each dose was assayed. FIG. 3 illustrates the decrease in the McPhail index following increasing doses of CDB-4124 administered by either route. Maximal inhibition (i.e. a decrease in the McPhail index to 1.5) occurred at 0.2 mg/kg CDB-4124 when administered vaginally, compared to 0.8 mg/kg when administered orally."}}, "note": "Read-outs that look alike come from different tables or passages of the source."}
{"smiles": "COCC(=O)[C@@]1(OC(C)=O)CC[C@H]2[C@@H]3CCC4=CC(=O)CCC4=C3[C@@H](c3ccc(N(C)C)cc3)C[C@@]21C", "note": "[CDB-4124]", "values": [{"measurement": "solubility thermodynamic at 72 h", "setting": "[1]; 0.1M HCl, 24 h, read-out: Thermodynamic solubility, 0.1M HCl, Mean", "result": 53.09, "unit": "µM"}, {"measurement": "solubility thermodynamic at 72 h", "setting": "[1]; 0.1M HCl, 72 h, read-out: Thermodynamic solubility, 0.1M HCl, Mean", "result": 56.12, "unit": "µM"}, {"measurement": "solubility thermodynamic at 72 h", "setting": "[1]; distilled water, 24 h, read-out: Thermodynamic solubility, distilled water, Mean", "result": 7.10, "unit": "µM"}, {"measurement": "solubility thermodynamic at 72 h", "setting": "[1]; distilled water, 72 h, read-out: Thermodynamic solubility, distilled water, Mean", "result": 3.20, "unit": "µM"}, {"measurement": "Thermodynamic solubility, Ethanol, Mean", "setting": "[1]; 24 h", "result": 36800, "unit": "µM"}, {"measurement": "Thermodynamic solubility, Ethanol, Mean", "setting": "[1]; 72 h", "result": 34100, "unit": "µM"}, {"measurement": "Subjects with elevations reported as SAEs", "setting": "liver aminotransferases; 25 mg CDB-4124 per day", "result": "One"}, {"measurement": "Subjects with elevations reported as SAEs", "setting": "liver aminotransferases; 50 mg CDB-4124 per day", "result": "six"}, {"measurement": "Subjects with elevations severe enough to be reported as SAEs", "setting": "liver aminotransferases; all doses", "result": "seven"}, {"measurement": "Subjects found to exhibit an increase in liver enzymes ≧3×ULN", "setting": "liver aminotransferases; all doses, before repeat test", "result": "thirteen"}, {"measurement": "Subjects with confirmed increase in liver enzymes ≧3×ULN", "setting": "liver aminotransferases; all doses, confirmed by repeat test in 48 hours", "result": "nine"}, {"measurement": "Adverse liver toxicity signals", "setting": "liver aminotransferases; oral, 12.5 mg", "result": "no adverse liver toxicity signals different from placebo"}, {"measurement": "Liver toxicity effects at 25 mg/day compared with 50 mg/day", "setting": "liver aminotransferases; oral, 25 mg/day vs 50 mg/day", "result": "significantly lower in frequency and intensity"}, {"measurement": "Women exhibiting severe liver toxicity", "setting": "liver aminotransferases; oral, 50 mg/day", "result": "3-4%"}, {"measurement": "Subjects in whom liver enzymes ≧3×ULN persisted", "setting": "liver aminotransferases; previously dosed with the 50 mg dose", "result": "five"}, {"measurement": "Cmax", "setting": "[2]; following oral administration", "result": "high"}, {"measurement": "Monodemethylated metabolite detected (first pass metabolism)", "setting": "[2]; following oral administration", "result": "Large quantities"}, {"measurement": "Tmax", "setting": "[2]; following oral administration", "result": "1 to 2", "unit": "h"}, {"measurement": "Maximum concentration for the 12.5 mg dose relative to the 50 mg dose", "setting": "[2]; oral CDB-4124, 12.5 mg vs 50 mg", "result": 25, "unit": "%"}, {"measurement": "Production of the mono-demethylated metabolite", "setting": "human hepatocytes", "result": "rapidly produce the mono-demethylated metabolite"}, {"measurement": "Production of the mono-demethylated metabolite", "setting": "animal hepatocytes", "result": "rapidly produce the mono-demethylated metabolite"}, {"measurement": "Effect on quantity and size of DMBA-induced breast tumors", "setting": "[3]", "result": "effective in reducing the quantity and size of DMBA-induced breast tumors"}, {"measurement": "Metabolism after peak plasma concentration", "setting": "[4]; oral micronized powder", "result": "rapidly metabolized"}, {"measurement": "Metabolism", "setting": "[4]; vaginal suppository", "result": "metabolized slowly"}, {"measurement": "Peak plasma concentrations (Cmax)", "setting": "[4]; vaginal suppository", "result": "relatively low"}, {"measurement": "Systemic exposure (AUC), local vs oral", "setting": "[4]; vaginal vs oral", "result": "much lower"}, {"measurement": "McPhail index at maximal inhibition", "setting": "[5]; 0.2 mg/kg vaginal or 0.8 mg/kg oral", "result": 1.5}, {"measurement": "Dose at which maximal inhibition occurred", "setting": "[5]; oral", "result": 0.8, "unit": "mg/kg"}, {"measurement": "Dose at which maximal inhibition occurred", "setting": "[5]; vaginal", "result": 0.2, "unit": "mg/kg"}, {"measurement": "Antiprogestational activity of vaginal delivery relative to the same oral dose", "setting": "[5]; vaginal vs oral", "result": "four times the antiprogestational activity"}]}
